From patent US10723711B2, “1,1,1-trifluoro-3-hydroxypropan-2-yl carbamate derivatives and 1,1,1-trifluoro-4-hydroxybutan-2-yl carbamate derivatives as MAGL inhibitors” (PFIZER INC., priority 2015, dated 2020)
Read-outs that look alike come from different tables or passages of the source.

Experiments:
[1] = target: T1, human recombinant Monoacylglycerol Lipase (Homo sapiens, UniProt Q99685); experiment: MAGL inhibition enzymatic assay, fluorogenic substrate 7-HCA, IC50 at T=0 min or after 30 minute incubation (T=30 min); type: biochemical; settings: geometric mean of 2-4 determinations unless otherwise indicated
T1 sequence (Q99685 1-303): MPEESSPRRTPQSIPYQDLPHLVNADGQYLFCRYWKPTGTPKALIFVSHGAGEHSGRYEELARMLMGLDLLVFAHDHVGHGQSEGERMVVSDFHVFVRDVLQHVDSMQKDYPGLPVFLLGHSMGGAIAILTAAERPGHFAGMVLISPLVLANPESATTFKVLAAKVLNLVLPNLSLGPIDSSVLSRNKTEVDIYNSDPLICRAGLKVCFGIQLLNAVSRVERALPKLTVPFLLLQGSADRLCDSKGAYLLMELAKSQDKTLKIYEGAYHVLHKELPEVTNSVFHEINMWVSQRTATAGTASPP
Procedure: An equal volume of 7-HCA in assay buffer with 10% DMSO was added either immediately (T=0 min) or after a 30 minute incubation (T=30 min) to initiate the reaction. […] After these dilutions, the final concentration of the test compound ranged from 3 μM to 0.03 nM. […] IC50 values were generated based on a four parameter fit model using ABASE software from IDBS.

[2] = target: T1, human recombinant Monoacylglycerol Lipase; experiment: MAGL inactivation, enzyme progress curves, kinact/KI; type: biochemical; settings: from enzyme progress curves, T = 0 min protocol; geometric mean of 2-4 determinations unless otherwise indicated
Procedure: Assessment of MAGL inhibition utilizes human recombinant Monoacylglycerol Lipase and the fluorogenic substrate 7-hydroxycoumarinyl arachidonate (7-HCA, Biomol ST-502). 400 nL of a test compound at decreasing concentration (ranging from 150 μM down to 1.5 nM) was spotted into a 384-well back plate (PerkinElmer, 6007279) using a Labcyte Echo, followed by addition of 10 μL of MAGL enzyme in assay buffer (50 mM HEPES, pH 7.4, 100 mM NaCl, 5 mM MgCl2, 0.1% Triton X-100 and 25% glycerin). An equal volume of 7-HCA in assay buffer with 10% DMSO was added either immediately (T=0 min) or after a 30 minute incubation (T=30 min) to initiate the reaction. The final concentration of MAGL enzyme was […] and 7-HCA substrate was 5 μM. After these dilutions, the final concentration of the test compound ranged from 3 μM to 0.03 nM. The reaction was allowed to progress for 60 minutes, after which the plate was read at an Ex/Em of 340/465. Percent inhibitions were calculated based on control wells containing no compound (0% inhibition) and a control compound (e.g., a MAGL inhibitor whose activity is known or was previously reported in the literature, such as one with about 100% inhibition). IC50 values were generated based on a four parameter fit model using ABASE software from IDBS. See e.g., Wang, Y. et al., “A Fluorescence-Based Assay for Monoacylglycerol Lipase Compatible with Inhibitor Screening,” Assay and Drug Development Technologies, 2008, Vol. 6 (3) pp 387-393 (reporting an assay for measuring MAGL activity).
To measure MAGL inactivation, the same protocol for the (T=0 min) MAGL inhibition IC50 assay was performed with data collected every minute to acquire enzyme progress curves at decreasing concentrations of compound.

[3] = T = 0 min (substrate added immediately), read-out: MAGL (T = 0 min) IC50
[4] = T = 30 min (30 minute incubation), read-out: MAGL (T = 30 min) IC50

SMILES | IC50 [1, 3] [nM] | IC50 [1, 4] [nM] | MAGL kinact/KI [2]
O=C(O[C@H](CO)C(F)(F)F)N1CCC2(CC1)CN(S(=O)(=O)c1ccc(F)cc1)C(O)CO2 (mixture of isomers) [Example 29, (2R)-1,1,1-Trifluoro-3-hydroxypropan-2-yl 4-[(4-fluorophenyl)sulfonyl]-3-hydroxy-1-oxa-4,9-diazaspiro[5.5]undecane-9-carboxylate] | 109 | 24 | 85270 1/s per M
O=C(O[C@H](CO)C(F)(F)F)N1CCC2(CC1)CC(OCc1ccccc1)CO2 (mixture of isomers) [Example 132] | 130 | 12 | 8426 1/s per M
O=C(O[C@H](CO)C(F)(F)F)N1CCC2(CC1)CN(CC1CCCOC1)CCO2 (single isomer, unassigned) [Example 4] | 166 | 19 | 5489 1/s per M
CC1N(S(=O)(=O)c2ccc(F)cc2)CCOC12CCN(C(=O)O[C@H](CO)C(F)(F)F)CC2 (single isomer, unassigned) [Example 71] | 99 | 17 | 9358 1/s per M
COc1ccc(-n2ccc([C@H]3[C@@H]4CN(C(=O)O[C@H](CO)C(F)(F)F)C[C@@H]43)n2)nc1 [Example 1, (2R)-1,1,1-trifluoro-3-hydroxypropan-2-yl (1α,5α,6α)-6-[1-(5-methoxypyridin-2-yl)-1H-pyrazol-3-yl]-3-azabicyclo[3.1.0]hexane-3-carboxylate] | 85 | 14 | 7806 1/s per M
CN([C@H]1COC2(CCN(C(=O)O[C@H](CO)C(F)(F)F)CC2)C1)S(=O)(=O)c1ccccc1 [Example 15, (2R)-1,1,1-trifluoro-3-hydroxypropan-2-yl (3R)-3-[methyl(phenylsulfonyl)amino]-1-oxa-8-azaspiro[4.5]decane-8-carboxylate] | 17 | 2 | 44421 1/s per M
O=C(O[C@H](CO)C(F)(F)F)N1C[C@@H]2[C@H](C1)[C@H]2c1ccn(Cc2ccccn2)n1 [Example 37] | 357 | 27 | 1616 1/s per M
O=C(O[C@H](CO)C(F)(F)F)N1CCC2(CC1)CN(Cc1ccc(F)cc1)CCO2 [Example 42] | 304 | 32 | 2591 1/s per M
O=C(O[C@H](CO)C(F)(F)F)N1C[C@@H]2CN(c3cc(C4CC4)ccn3)C[C@@H]2C1 [Example 48] | > 3000 | 926 | –
O=C(O[C@H](CO)C(F)(F)F)N1CCC2(CC1)CN(S(=O)(=O)C1CCOCC1)CCO2 [Example 49] | > 3000 | 654 | –
O=C(O[C@H](CO)C(F)(F)F)N1CCC(CN(Cc2ccc(F)cc2)C2CCOCC2)CC1 [Example 50] | 857 | 71 | –
O=C(O[C@H](CO)C(F)(F)F)N1CCC2(CC1)CN(S(=O)(=O)CCCN1CCCC1)CCO2 [Example 54] | > 3000 | > 1680 | –
O=C(O[C@H](CO)C(F)(F)F)N1CCC2(CC1)CN(S(=O)(=O)CCc1ccccn1)CCO2 [Example 55] | 447 | 43 | –
O=C(O[C@H](CO)C(F)(F)F)N1CCC2(CC1)CN(S(=O)(=O)CCCn1ccnc1)CCO2 [Example 56] | 2340 | 167 | –
Cc1ccc(OC2CCN(C(=O)O[C@H](CO)C(F)(F)F)CC2)nc1 [Example 57] | 126 | 10 | 5998 1/s per M
Cc1cnc(OC2CCN(C(=O)O[C@H](CO)C(F)(F)F)CC2)nc1-c1ccnn1C [Example 58] | 249 | 33 | –
Cc1ccc(S(=O)(=O)N2CCOC3(CCN(C(=O)O[C@H](CO)C(F)(F)F)CC3)C2)cc1Cl [Example 59] | 15 | 1 | 59048 1/s per M

SMILES | IC50 [1, 3] [nM] | IC50 [1, 4] [nM] | MAGL kinact/KI [2]
O=C(O[C@H](CO)C(F)(F)F)N1CCC2(CC1)CN(S(=O)(=O)c1ccc(F)c(Cl)c1)CCO2 [Example 60] | 37 | 2 | 19870 1/s per M
Cc1cnc(OC2CCN(C(=O)O[C@H](CO)C(F)(F)F)CC2)c(C)c1 [Example 61] | 53 | 5 | 7304 1/s per M
Cn1nccc1-c1ccnc(OC2CCN(C(=O)O[C@H](CO)C(F)(F)F)CC2)c1 [Example 64] | 550 | 42 | –
Cn1nccc1-c1cccc(OC2CCN(C(=O)O[C@H](CO)C(F)(F)F)CC2)n1 [Example 65] | 359 | 30 | –
O=C(O[C@H](CO)C(F)(F)F)N1CCC2(CC1)CN(S(=O)(=O)NCc1ccccc1)CCO2 [Example 67] | 29 | 4 | 30591 1/s per M
COc1ccc(-n2ccc([C@H]3[C@@H]4CN(C(=O)O[C@H](CO)C(F)(F)F)C[C@@H]43)n2)cn1 [Example 69] | 104 | 11 | 4621 1/s per M
O=C(O[C@H](CO)C(F)(F)F)N1CCC2(CC1)CN(Cc1ccc(F)cc1)C(=O)O2 [Example 72] | 220 | 28 | –
O=C(O[C@H](CO)C(F)(F)F)N1CCC2(CC1)CN(S(=O)(=O)NCc1ccccn1)CCO2 [Example 74] | 392 | 52 | –
O=C(O[C@H](CO)C(F)(F)F)N1CCC(Oc2ccc(CO)cn2)CC1 [Example 75] | 688 | 79 | –
Cc1cnc(N2CCOC3(CCN(C(=O)O[C@H](CO)C(F)(F)F)CC3)C2)nc1 [Example 76] | 658 | 83 | –
C#Cc1ccc(-n2ccc([C@H]3[C@@H]4CN(C(=O)O[C@@H](CO)C(F)(F)F)C[C@@H]43)n2)cc1 [Example 82] | > 2750 | 598 | –
COP(=O)(OC)OC[C@@H](OC(=O)N1CCC2(CC1)CN(S(=O)(=O)c1ccc(F)cc1)CCO2)C(F)(F)F [Example 86] | 97 | 8 | 132 1/s per M
CCOP(=O)(OCC)OC[C@@H](OC(=O)N1CCC2(CC1)CN(S(=O)(=O)c1ccc(F)cc1)CCO2)C(F)(F)F [Example 88] | > 3000 | > 3000 | –
C[N+](C)(C)CCOP(=O)([O-])OC[C@@H](OC(=O)N1CCC2(CC1)CN(S(=O)(=O)c1ccc(F)cc1)CCO2)C(F)(F)F [Example 90] | > 3000 | > 3000 | –
O=C(O[C@H](CO)C(F)(F)F)N1CCC2(CC1)CCN(C(=O)c1ccccn1)C2 [Example 128] | 423 | 50 | –
CN(C(=O)c1ccccn1)[C@H]1COC2(CCN(C(=O)O[C@H](CO)C(F)(F)F)CC2)C1 [Example 146] | 539 | 48 | –
CN(C1COC2(CCN(C(=O)OC(COP(=O)(O)O)C(F)(F)F)CC2)C1)S(=O)(=O)c1ccccc1 (centres unmarked) [Example 148] | > 3000 | > 1230 | –
